According to patent US10501454B2, “Monocyclic β-lactam-siderophore conjugate, and preparation method and use thereof” (Shanghai Institute of Materia Medica, Chinese Academy of …, priority 2016, dated 2019):
Structures can show the parent of a compound that is named as a salt.

What was measured:
[1] = system: Escherichia coli ECO-14-4 (ESBLs); test: In vivo efficacy in mice systemically infected with Escherichia coli ECO-14-4 (ESBLs); details: Escherichia coli; Kunming mice, intraperitoneal infection, drug s.c. 0.5 h and 4 h after infection, deaths over 7 days, Bliss method; read-out: ED50 Subcutaneous injection
Method: 3.1 Test strains: Clinically isolated pathogenic Escherichia coli ECO-14-4 (ESBLs), supplied by Sichuan Primed Shines Bio-tech Co., Ltd.
3.2 Test animals: Kunming mice, age: 4 to 5 weeks, weight: 18 to 22 g, half male, half female, SPF grade.
3.3 Test methods: Mice were randomly divided into several groups, 5 mice for each group, half male and half female, and 5 doses for each test drug: 1.25, 2.5, 5, 10 and 20 mg/kg. The mice were intraperitoneally injected with 0.5 mL of […] CFU/mL bacterial suspension for each mouse, and subcutaneously injected with the drug at the designed dose 0.5 h and 4 h after infection. The subcutaneous injection volume was 0.2 ml/20 g mouse weight; the number of deaths in mice was observed and recorded for 7 consecutive days. According to the number of deaths in mice, the half effective dose ED50 was calculated according to the Bliss method using the DAS 1.0 software, edited by Sun Ruiyuan et al.

[2] = system: Escherichia coli ATCC 35218; test: MIC, broth microdilution, normal MH medium; assay type: cell-based; details: Escherichia coli, ATCC35218, quality control strain, read-out: Antibacterial activity MIC, Escherichia coli ATCC 35218
Method: (§1) Strain for quality control: Escherichia coli ATCC35218, purchased from National Center of Clinical Laboratory.
(§2) Medium: MH liquid medium (OXOID).
(§3) Culture condition: cells were incubated at 35-37° C. for 16-18 h.
(§4) The broth microdilution method recommended by Clinical and Laboratory Standards Institute (CLSI), Performance Standards for Antimicrobial Susceptibility Testing; Twenty-Third Informational Supplement, M02-All, M07-A9 and M11-A8, 2013 was used to determine the MIC value of each test sample against each test strain in the normal MH medium and iron-deficient MH medium.
(§5) After diluting each sample to different concentrations with normal MH medium, 100 μl of each test sample solution at different concentrations was separately aspirated onto a 96-well sterile polystyrene plate. Drug solutions were added to the 1st to 10th well with the final concentrations of 16, 8, 4, 2, 1, 0.5, 0.25, 0.125, 0.06, and 0.03 mg/L in each well, respectively. The 11th well, as a blank control, was not added with drugs and bacteria. The 12th well, as a bacterial growth control, was added with bacteria but no drug.
(§6) The test bacterial liquid was adjusted to a bacterial suspension of 0.5 Mcfarland standard with physiological saline, and diluted with MH broth at 1:100, and then added to the drug solution so that a final concentration of the bacterial liquid was approximately 10^4 CFU/ml; 100 μl of the bacterial liquid was further added to each of the above wells (the total volume in each well is 200 μl), which was sealed and placed in a 35-37° C. incubator for 18-20 h for testing the result. The OD600 value was measured by a microplate reader, Minimal Inhibitory Concentration (MIC) of a drug is the lowest concentration of the drug which prevents growth of bacteria in the wells. 1.2.2 MIC in iron-deficient MH medium

[3] = system: Escherichia coli ATCC 35218; test: MIC, broth microdilution, iron-deficient MH medium; assay type: cell-based; details: Escherichia coli, ATCC35218; iron-deficient MH medium (16 mg/L 2,2'-bipyridine); quality control strain; read-out: Antibacterial activity MIC, Escherichia coli ATCC 35218
Method: as §1, §2, §3, §4
(§7) BPL was added to the normal MH medium to obtain a final concentration of 16 mg/L; According to the method in Section 1.2.1, 100 μl of each test sample solution at different concentrations was aspirated to the 1st to 10th well in a 96-well sterile polystyrene plate to obtain the final drug concentrations of 16, 8, 4, 2, 1, 0.5, 0.25, 0.125, 0.06, and 0.03 mg/L, respectively. Then, 100 μl of the test bacterial liquid was added to each well (200 μl per well), and the final concentration of the bacterial liquid was approximately 10^4 CFU/ml. After sealing, it was placed in a 35-37° C. incubator for 18-20 hours for testing the result. The OD600 value was measured by a microplate reader, Minimal Inhibitory Concentration (MIC) of a drug is the lowest concentration of the drug which prevents growth of bacteria in the wells.

[4] = system: Klebsiella pneumoniae (4 strains); test: MIC, broth microdilution, iron-deficient MH medium; assay type: cell-based
Method: (§8) Supplier of the strains: all of the above strains were provided by Sichuan Primed Shines Bio-tech Co., Ltd. A single colony was isolated by streaking on agar plates for each strain prior to the experiment, and the cells freshly cultured at 37° C. overnight were appropriately diluted for the experiment.
as §2, §3, §4, §7

[5] = system: Acinetobacter baumannii (4 strains); test: MIC, broth microdilution, iron-deficient MH medium; assay type: cell-based; details: Acinetobacter baumannii; iron-deficient MH medium (16 mg/L 2,2'-bipyridine); multidrug-resistant clinical isolates (integron I, OXA23); read-out: Antibacterial activity MIC, Acinetobacter baumannii (4 strains)
Method: as §8, §2, §3, §4, §7

[6] = system: Pseudomonas aeruginosa (4 strains); test: MIC, broth microdilution, iron-deficient MH medium; assay type: cell-based; details: Pseudomonas aeruginosa; iron-deficient MH medium (16 mg/L 2,2'-bipyridine); multidrug-resistant clinical isolates (integrator I, IMP4); read-out: Antibacterial activity MIC, Pseudomonas aeruginosa (4 strains)
Method: as §8, §2, §3, §4, §7

[7] = system: Escherichia coli (4 strains); test: MIC, broth microdilution, iron-deficient MH medium; assay type: cell-based; details: Escherichia coli; iron-deficient MH medium (16 mg/L 2,2'-bipyridine); clinical isolates (ESBLs); read-out: Antibacterial activity MIC, Escherichia coli (4 strains)
Method: as §8, §2, §3, §4, §7

[8] = system: Acinetobacter baumannii (4 strains); test: MIC, broth microdilution, normal MH medium; assay type: cell-based; details: Acinetobacter baumannii, read-out: Antibacterial activity MIC, Acinetobacter baumarmii (4 strains)
Method: as §8, §2, §3, §4, §5, §6

[9] = system: Pseudomonas aeruginosa (4 strains); test: MIC, broth microdilution, normal MH medium; assay type: cell-based; details: Pseudomonas aeruginosa, multidrug-resistant clinical isolates (integrator I, IMP4), read-out: Antibacterial activity MIC, Pseudomonas aeruginosa (4 strains)
Method: as §8, §2, §3, §4, §5, §6

[10] = system: Escherichia coli (4 strains); test: MIC, broth microdilution, normal MH medium; assay type: cell-based
Method: as §8, §2, §3, §4, §5, §6

CC(C)C(O/N=C(\C(=O)N[C@@H]1C(=O)N(OS(=O)(=O)O)C1(C)C)c1csc(N)n1)c1cc(=O)c(O)cn1O (stereo partly drawn) [Compound 12, (3S)-3-((Z)-2-(2-aminothiazol-4-yl)-2-((1-(1,5-dihydroxy-4-oxo-1,4-dihydropyridin-2-yl)methylisopropyloxy)imine)acetamido)-2,2-dimethyl-4-oxoazetidine-1-hydrogen sulfate]
ED50 [1]: 3.37 mg/kg
MIC [2]: < 0.03 µg/mL
MIC [3]: < 0.03 µg/mL
MIC ([4]; Klebsiella pneumoniae, iron-deficient MH medium (16 mg/L 2,2'-bipyridine), multi-drug resistant clinical isolates (KPC2), read-out: Antibacterial activity MIC, Klebsiella pneumoniae (4 strains)): 0.25 to 0.5 µg/mL
times more effective than BAL30072 in inhibitory activity against Klebsiella pneumonia ([4]; iron-deficient MH medium, from MIC of Table 3): 128-256 times
MIC [5]: 0.5 to 1 µg/mL
MIC [6]: 0.25 to 1 µg/mL
MIC [7]: 0.03 to 0.25 µg/mL
MIC [8]: 2 µg/mL
MIC [9]: 0.25 to 2 µg/mL
MIC ([10]; Escherichia coli, clinical isolates (ESBLs), read-out: Antibacterial activity MIC, Escherichia coli (4 strains)): 0.03 to 0.25 µg/mL
times more effective than BAL30072 in inhibitory activity against Escherichia coli ([10]; from MIC of Table 2): 4-32 times
